“Also recorded” adds a separate entry of the source.
Key:
[1] = target: T1, chondroitinase ABC (ChABC) (Proteus vulgaris, UniProt P59807, L125P); assay: relative enzyme inhibition assay of ChABC by selected polysaccharide (chondroitin sulfate C substrate, absorbance at 232 nm); format: biochemical; settings: for Activity (apparent ChABC activity in presence of selected polysaccharide) / % rA (percentage of residual activity): 0.2% chondroitin sulfate C, 0.2% selected polysaccharide, 50 mM pH8 Tris HCl, 37° C., 20 min; for Activity (apparent ChABC activity in presence of selected polysaccharide): reference without polysaccharide 121 U/L; for % rA (percentage of residual activity): relative to assay without polysaccharide; for effect on ChABC enzyme activity (in words): equal amount of substrate (chondroitin sulfate C) and polysaccharide
T1 sequence (P59807 25-1021 L125P): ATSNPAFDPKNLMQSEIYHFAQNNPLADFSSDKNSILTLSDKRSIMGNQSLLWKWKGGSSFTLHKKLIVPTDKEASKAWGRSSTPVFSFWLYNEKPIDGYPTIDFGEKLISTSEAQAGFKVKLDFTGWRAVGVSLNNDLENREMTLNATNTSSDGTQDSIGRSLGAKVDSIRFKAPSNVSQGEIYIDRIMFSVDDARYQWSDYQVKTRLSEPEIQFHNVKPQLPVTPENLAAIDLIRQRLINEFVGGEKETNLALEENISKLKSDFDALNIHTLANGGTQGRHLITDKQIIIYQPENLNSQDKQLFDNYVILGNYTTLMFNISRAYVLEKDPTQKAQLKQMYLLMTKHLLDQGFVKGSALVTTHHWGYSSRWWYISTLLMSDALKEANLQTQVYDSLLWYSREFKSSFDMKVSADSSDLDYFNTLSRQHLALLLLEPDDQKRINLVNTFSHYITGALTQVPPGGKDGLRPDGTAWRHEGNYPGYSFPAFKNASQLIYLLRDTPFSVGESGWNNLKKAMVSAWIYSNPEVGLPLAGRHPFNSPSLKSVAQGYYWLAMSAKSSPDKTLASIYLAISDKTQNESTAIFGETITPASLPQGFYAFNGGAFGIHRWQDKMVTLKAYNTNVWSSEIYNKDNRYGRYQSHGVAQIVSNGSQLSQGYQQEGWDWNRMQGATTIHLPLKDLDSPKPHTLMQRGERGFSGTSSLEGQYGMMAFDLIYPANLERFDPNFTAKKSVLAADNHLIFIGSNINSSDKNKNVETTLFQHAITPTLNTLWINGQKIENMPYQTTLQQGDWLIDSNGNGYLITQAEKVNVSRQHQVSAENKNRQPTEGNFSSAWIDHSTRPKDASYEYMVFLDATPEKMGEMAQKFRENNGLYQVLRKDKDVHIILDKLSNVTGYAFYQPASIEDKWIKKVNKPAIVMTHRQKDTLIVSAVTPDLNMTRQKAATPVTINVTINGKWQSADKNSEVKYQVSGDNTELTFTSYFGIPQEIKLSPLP
From the text: There are several existing methods for quantitative study of protein-small molecule interactions such as differential scanning calorimetry, quartz crystal microbalance, fluorescence anisotropy, and the like. However, these methods require complex equipment, are expensive and time consuming, requiring protein immobilization or protein labeling. In order to save time and reduce costs, semi-quantitative assessment methods can be applied, such as enzyme inhibition assays. In the present invention, the relative binding affinity is evaluated by monitoring the inhibition of ChABC by the selected polysaccharide. The stronger the observed inhibitory effect, the higher the affinity between the ChABC and the polysaccharide. A more detailed experimental setup is shown in Example 1. […] Thus, heparin was identified as the most suitable ligand among the selected screened polysaccharides for constructing the affinity column.
In the present invention, it is necessary to identify molecules that have a similar structure to the substrate of ChABC but are inert to enzymatic degradation. In order to test polysaccharides that could actually bind to the active site of ChABC, a relative enzyme inhibition assay was conducted on the selected polysaccharide:
490 μL of the substrate solution was incubated at 37° C. for at least 15 minutes containing 0.2% chondroitin sulfate C, 0.2% selected polysaccharide and 50 mM pH8 Tris HCl buffer. 10 μL of ChABC with activity of about 100 U/L was incubated at 37° C. for at least 3 minutes. After incubation, the two solutions were gently mixed. The mixture was then incubated at 37° C. for 20 minutes to perform enzymatic degradation of chondroitin sulfate. After 20 minutes, the reaction was terminated by inactivating ChABC by heating at 100° C. for 2 minutes. In addition to inactivating the mixture immediately without incubation for 20 minutes, a blank control was performed in the same manner. The absorbance of the heat inactivated solution at 232 nm was then measured and the apparent activity was calculated as shown in Equation 1. The assay in the absence of selected polysaccharide was also conducted in the same manner as a reference.
[formula] • where • Abs=Difference in absorbance • =OD232nm in sample tubes−OD232nm in blank tubes • E=Millimolar extinction coefficient of unsaturated disaccharides from Chondroitin Sulfate C=5.5 • t=Reaction time=20 min • Vt=Total volume of the assay=0.5 mL • Vs=Volume of enzyme used=0.01 mL • DF=Dilution factor • 1000=Convert U/mL to U/L
[formula] • where • % rA=percentage of residual activity • A(poly)=the activity presence of selected polysaccharide • A(ref)=the […] of the assay without the presence of selected polysaccharide

[2] = target: T1, chondroitinase ABC (ChABC); assay: incubation of ChABC alone with heparin (change in absorbance, enzymatic degradation); format: biochemical; settings: ChABC incubated alone with heparin; no change in absorbance
From the text: Therefore, immobilization of heparin as a ligand for affinity purification of ChABC is the most suitable choice among the selected polysaccharide derivatives.

Substance	Activity (apparent ChABC activity in presence of selected polysaccharide) [1]	% rA (percentage of residual activity) [1]	effect on ChABC enzyme activity (in words) [1]	susceptibility to enzymatic degradation by ChABC [2]
polygalacturonic acid	117 U/L	97%	no significant effect on enzyme activity	
heparin	5.1 U/L	4.2%	almost completely inhibited ChABC activity; also recorded: strongest inhibitory effect on ChABC	not subject to the enzymatic degradation activity of ChABC
Alginic acid	119 U/L	98%	no significant effect on enzyme activity	
